Measured values taken from patent US8247573B2, “Substituted N-(2-mercaptopyridin-3-yl)amides as KCNQ2/3 modulators” (Gruenenthal GmbH, priority 2009, dated 2012).
Values belong to the molecule of their own block, whether it stands above or below them.

Assays:
[1] = molecular target: T1, KCNQ2/3 channels (Homo sapiens, UniProt O43525+O43526); test: Fluorescence assay using a voltage-sensitive dye (fluorimetry); format: cell-based; details: CHO-K1 cells expressing KCNQ2/3; for EC50: agonistic activity; for Emax: relative to retigabine = 100%, negative values = antagonistic, read-out: Fluorimetry % efficacy (I/EC50, retigabine = 100%)
T1 construct: expressed in transfected cells; host or cells: CHO-K1
Method: Pharmacological Experiments Fluorescence Assay Using a Voltage-Sensitive Dye
Human CHO-K1 cells expressing KCNQ2/3 channels are cultivated adherently at 37° C., 5% CO2 and 95% humidity in cell culture bottles (e.g. 80 cm^2 TC flasks, Nunc) with DMEM-high glucose (Sigma Aldrich, D7777) including 10% FCS (PAN Biotech, e.g. 3302-P270521) or alternatively MEM Alpha Medium (1×, liquid, Invitrogen, #22571), 10% foetal calf serum (FCS) (Invitrogen, #10270-106, heat-inactivated) and the necessary selection antibiotics.
Before being seeded out for the measurements, the cells are washed with a 1×DPBS buffer without Ca^2+/Mg^2+ (e.g. Invitrogen, #14190-094) and detached from the bottom of the culture vessel by means of Accutase (PAA Laboratories, #L11-007) (incubation with Accutase for 15 min at 37° C.). The cell count then present is determined using a CASY™ cell counter (TCC model, Schärfe System) in order subsequently to apply 20,000 to 30,000 cells/well/100 μl of the described nutrient medium, depending on density optimisation for the individual cell line, to 96-well measuring plates of the Corning™ CellBIND™ type (flat clear-bottom black polystyrene microplates, #3340). Incubation is then carried out for one hour at room temperature, without gassing or adjusting the humidity, followed by incubation for 24 hours at 37° C., 5% CO2 and 95% humidity.
The voltage-sensitive fluorescent dye from the Membrane Potential Assay Kit (Red™ bulk format part R8123 for FLIPR, MDS Analytical Technologies™) is prepared by dissolving the contents of a vessel of Membrane Potential Assay Kit Red Component A in 200 ml of extracellular buffer (ES buffer, 120 mM NaCl, 1 mM KCl, 10 mM HEPES, 2 mM CaCl2, 2 mM MgCl2, 10 mM glucose; pH 7.4). After removal of the nutrient medium, the cells are washed with 200 μl of ES buffer, then covered with a layer of 100 μl of the dye solution prepared above and incubated for 45 min at room temperature with exclusion of light.
The fluorescence measurements are carried out with a BMG Labtech FLUOstar™, BMG Labtech NOVOstar™ or BMG Labtech POLARstar™ instrument (525 nm excitation, 560 nm emission, bottom-read mode). After incubation of the dye, 50 μl of the substances to be tested in the desired concentrations, or 50 μl of ES buffer for control purposes, are introduced into separate cavities of the measuring plate and incubated for 30 min at room temperature whilst being shielded from light. The fluorescence intensity of the dye is then measured for 5 min and the fluorescence value F1 of each well is thus determined at a given, constant time. 15 μl of a […] KCl solution […] are then added to each well. The change in fluorescence is subsequently measured until all relevant measured values have been obtained (mainly […]). At a given time after KCl application, a fluorescence value F2 is determined, in this case at the time of the fluorescence peak.
For calculation, the fluorescence intensity F2 is compared with the fluorescence intensity F1, and the agonistic activity of the target compound on the potassium channel is determined therefrom. F2 and F1 are calculated as follows: […]
In order to determine whether a substance has an agonistic activity,
[formula] is determined by adding to the reaction batch only the buffer solution instead of the substance to be tested, determining the value F1K of the fluorescence intensity, adding the potassium ions as described above and measuring a value F2K of the fluorescence intensity. Then F2K and F1K are calculated as follows: […]
A substance has an agonistic activity on the potassium channel if
Independently of the comparison of
[formula] it is also possible to conclude that a target compound has an agonistic activity if an increase in
[formula] is to be observed as the dosage of the target compound increases.
Calculations of EC50 values are carried out with the aid of Prism v4.0 software (GraphPad Softwares™).

[2] = tested on: mice; test: Formalin test in mice; format: in vivo; details: 4.64 mg/kg, phase 2 (chronic pain), change versus vehicle control
Method: The formalin test (Dubuisson, D. and Dennis, S. G., 1977, Pain, 4, 161-174) is a model for acute and chronic pain. A single formalin injection into the dorsal side of one rear paw is used to induce a biphase nociceptive response in experimental animals allowed to move freely, and the response is recorded by observation of three clearly distinguishable behaviour patterns. The response comprises two phases: phase 1=immediate response (duration up to 10 min; shaking of paw, licking), phase 2=delayed response (after a rest phase; likewise shaking of paw, licking; duration up to 60 min). […] In the experiments presented here the chronic pain component (phase 2) was evaluated.
Formalin is administered subcutaneously in a volume of 20 μl and a concentration of 1% into the dorsal side of the right rear paw of each animal. The specific behavioural changes, such as lifting, shaking or licking the paw (score 3, Dubuisson & Dennis, 1977), were observed and recorded during the observation period of 21 to 24 min after formalin injection. […]
Based on the quantification of the pain behaviour, the effect of the substance in the formalin test was determined as the change in comparison to the control as a percentage. […]

SMILES: O=C(Nc1cccnc1SCCS(=O)(=O)c1ccccc1)c1ccccc1 [Example 4, N-[2-[2-(Benzenesulfonyl)-ethylsulfanyl]-pyridin-3-yl]benzamide]
Emax [1]: 55%

SMILES: O=C(Cc1ccc2ccccc2c1)Nc1cccnc1SCCS(=O)(=O)c1cccc(C(F)(F)F)c1 [Example 24, 2-Naphthalen-2-yl-N-[2-[2-[[3-(trifluoromethyl)phenyl]sulfonyl]-ethylsulfanyl]-pyridin-3-yl]acetamide]
EC50 [1]: 153 nM | Emax [1]: 84%

SMILES: O=C(Cc1cccs1)Nc1cccnc1SCCS(=O)(=O)c1cccc(C(F)(F)F)c1 [Example 3, 2-Thiophen-2-yl-N-[2-[2-[[3-(trifluoromethyl)phenyl]sulfonyl]-ethylsulfanyl]-pyridin-3-yl]acetamide]
Formalin test in mice IV Effect @ dose [mg/kg] [2]: 87% @ 4.64 | EC50 [1]: 31 nM | Emax [1]: 164%

SMILES: O=C(Cc1cccs1)Nc1cccnc1SCCOc1cccc(C(F)(F)F)c1 [Example 22, 2-Thiophen-2-yl-N-[2-[2-[3-(trifluoromethyl)-phenoxy]-ethylsulfanyl]-pyridin-3-yl]acetamide]
EC50 [1]: 732 nM | Emax [1]: 155%

SMILES: O=C(Cc1ccc(O)cc1)Nc1cccnc1SCCS(=O)(=O)c1cccc(C(F)(F)F)c1 [Example 13, 2-(4-Hydroxyphenyl)-N-[2-[2-[[3-(trifluoromethyl)phenyl]sulfonyl]-ethylsulfanyl]-pyridin-3-yl]acetamide]
Emax [1]: 46%

SMILES: O=C(Nc1cccnc1SCCS(=O)(=O)c1cccc(C(F)(F)F)c1)C1CCCCC1 [Example 19, N-[2-[2-[[3-(Trifluoromethyl)phenyl]sulfonyl]-ethylsulfanyl]-pyridin-3-yl]-cyclohexane carboxylic acid amide]
Emax [1]: -43%

SMILES: COc1ccccc1CC(=O)Nc1cccnc1SCCS(=O)(=O)c1cccc(C(F)(F)F)c1 [Example 9, 2-(2-Methoxyphenyl)-N-[2-[2-[[3-(trifluoromethyl)phenyl]sulfonyl]-ethylsulfanyl]-pyridin-3-yl]acetamide]
IC50 ([1]; antagonistic activity): 192 nM | Emax [1]: -45%

SMILES: O=C(CCc1ccccc1)Nc1cccnc1SCCS(=O)(=O)c1cccc(C(F)(F)F)c1 [Example 27, 3-Phenyl-N-[2-[2-[[3-(trifluoromethyl)phenyl]sulfonyl]-ethylsulfanyl]-pyridin-3-yl]propionamide]
EC50 [1]: 208 nM | Emax [1]: 112%

Now from value to molecule:

EC50 [1]: 546 nM | Emax [1]: 119%
SMILES: CC(C)(C)CC(=O)Nc1cccnc1SCCOc1ccc(F)cc1 [Example 63, N-[2-[2-(4-Fluorophenoxy)-ethylsulfanyl]-pyridin-3-yl]-3,3-dimethyl butyramide]

EC50 [1]: 349 nM | Emax [1]: 98.1%
SMILES: Cc1ccnc(SCCS(=O)(=O)c2cccc(C(F)(F)F)c2)c1NC(=O)Cc1cccs1 [Example 56, N-[4-Methyl-2-[2-[[3-(trifluoromethyl)phenyl]sulfonyl]-ethylsulfanyl]-pyridin-3-yl]-2-thiophen-2-yl acetamide]

EC50 [1]: 480 nM | Emax [1]: 148%
SMILES: O=C(Nc1cccnc1SCCCc1ccc(F)cc1)c1ccc(F)c(F)c1 [Example 65, 3,4-Difluoro-N-[2-[3-(4-fluorophenyl)-propylsulfanyl]-pyridin-3-yl]benzamide]

EC50 [1]: 27.5 nM | Emax [1]: 129%
SMILES: CC(C)(C)CC(=O)Nc1cccnc1SCCSc1ccc(F)cc1 [Example 61, N-[2-[2-[(4-Fluorophenyl)sulfanyl]-ethylsulfanyl]-pyridin-3-yl]-3,3-dimethyl butyramide]

Emax [1]: 38%
SMILES: O=C(Cc1ccncc1)Nc1cccnc1SCCS(=O)(=O)c1cccc(C(F)(F)F)c1 [Example 36, 2-Pyridin-4-yl-N-[2-[2-[[3-(trifluoromethyl)phenyl]sulfonyl]-ethylsulfanyl]-pyridin-3-yl]acetamide]

EC50 [1]: 99 nM | Emax [1]: 127%
SMILES: O=C(CCC1CCCCC1)Nc1cccnc1SCCS(=O)(=O)c1cccc(C(F)(F)F)c1 [Example 41, 3-Cyclohexyl-N-[2-[2-[[3-(trifluoromethyl)phenyl]sulfonyl]-ethylsulfanyl]-pyridin-3-yl]propionamide]

EC50 [1]: 363 nM | Emax [1]: 139%
SMILES: O=C(CC1CCCCO1)Nc1cccnc1SCCS(=O)(=O)c1cccc(C(F)(F)F)c1 (stereo not shown) [Example 39, 2-Tetrahydropyran-2-yl-N-[2-[2-[[3-(trifluoromethyl)phenyl]sulfonyl]-ethylsulfanyl]-pyridin-3-yl]acetamide]

EC50 [1]: 174 nM | Emax [1]: 93%
SMILES: O=C(Nc1cccnc1SCCS(=O)(=O)c1cccc(C(F)(F)F)c1)C1CCCCO1 (stereo not shown) [Example 48, N-[2-[2-[[3-(Trifluoromethyl)phenyl]sulfonyl]-ethylsulfanyl]-pyridin-3-yl]-tetrahydropyrane-2-carboxylic acid amide]

EC50 [1]: 265 nM | Emax [1]: 95%
SMILES: O=C(Nc1cccnc1SCCS(=O)(=O)c1cccc(C(F)(F)F)c1)c1cccc(O)c1 [Example 47, 3-Hydroxy-N-[2-[2-[[3-(trifluoromethyl)phenyl]sulfonyl]-ethylsulfanyl]-pyridin-3-yl]benzamide]

EC50 [1]: 184 nM | Emax [1]: 176%
SMILES: CC(C)(C)CC(=O)Nc1cccnc1SCCCc1ccc(F)cc1 [Example 66, N-[2-[3-(4-Fluorophenyl)-propylsulfanyl]-pyridin-3-yl]-3,3-dimethyl butyramide]

Emax [1]: 31%
SMILES: O=C(Cc1cccc(O)c1)Nc1cccnc1SCCS(=O)(=O)c1cccc(C(F)(F)F)c1 [Example 37, 2-(3-Hydroxyphenyl)-N-[2-[2-[[3-(trifluoromethyl)phenyl]sulfonyl]-ethylsulfanyl]-pyridin-3-yl]acetamide]
